From PubChem BioAssay AID2060892 (Molecular Pharmacology Branch, DTP, NCI, 2025)

Test system: HOP-62 complex spheroids with HUVEC/MSC, viability
Assay: Anticancer human tumor HOP-62 cell line growth inhibition [RAS];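 further: spheroids exposed to agents for seven days before readout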;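 on viability, T/C: 100% = DMSO vehicle control viability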
Conditions: for IC50: curve of first compound; for viability, T/C: stronger effect = lower value
Procedure, shortened: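 Tumour cells grown as complex spheroids with HUVEC endothelial cells and mesenchymal stem cells, treated with RAS pathway inhibitor combinations. Each agent spans half-log steps from near clinical Cmax, or 10 microM where Cmax is unknown.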

[1] = second compound 0.000949 µM, first compound 0.0316 µM
[2] = second compound 0.000949 µM, first compound 0.1 µM
[3] = second compound 0.000949 µM, first compound 0.316 µM
[4] = second compound 0.000949 µM, first compound 1 µM
[5] = second compound 0.003 µM, first compound 0.0316 µM
[6] = second compound 0.003 µM, first compound 0.1 µM
[7] = second compound 0.003 µM, first compound 0.316 µM
[8] = second compound 0.003 µM, first compound 1 µM
[9] = second compound 0.00949 µM, first compound 0.0316 µM
[10] = second compound 0.00949 µM, first compound 0.1 µM
[11] = second compound 0.00949 µM, first compound 0.316 µM
[12] = second compound 0.00949 µM, first compound 1 µM
[13] = second compound 0.03 µM, first compound 0.0316 µM
[14] = second compound 0.03 µM, first compound 0.1 µM
[15] = second compound 0.03 µM, first compound 0.316 µM
[16] = second compound 0.03 µM, first compound 1 µM
[17] = second compound 0.0949 µM, first compound 0.0316 µM
[18] = second compound 0.0949 µM, first compound 0.1 µM
[19] = second compound 0.0949 µM, first compound 0.316 µM
[20] = second compound 0.0949 µM, first compound 1 µM
[21] = second compound 0.3 µM, first compound 0.0316 µM
[22] = second compound 0.3 µM, first compound 0.1 µM
[23] = second compound 0.3 µM, first compound 0.316 µM
[24] = second compound 0.3 µM, first compound 1 µM

Work on `CC1(O)CCCC1n1c(=O)c(C(F)F)cc2cnc(NC3CCN(S(C)(=O)=O)CC3)nc21` (centres undefined) + CCn1c(-c2cccnc2C(C)OC)c2c3cc(ccc31)N1CCOC(CC(NC(=O)C(C(C)C)N(C)C(=O)C3(F)CCN(C(=O)C#CC(C)(C)N(C)C)CC3)C(=O)N3CCCC(N3)C(=O)OCC(C)(C)C2)C1 yielded an IC50 (second compound 0.000949 µM) of 4.84 µM, an IC50 (second compound 0.003 µM) of 4.47 µM and an IC50 (second compound 0.00949 µM) of 3.4 µM. The IC50 (second compound 0.03 µM) was 1.17 µM, the IC50 (second compound 0.0949 µM) was 1.63 µM and the IC50 (second compound 0.3 µM) was 0.777 µM. It also gave a viability, T/C [1] of 107%, a viability, T/C [2] of 87.9% and a viability, T/C [3] of 58%. The viability, T/C [4] was 86.6%, the viability, T/C (second compound 0.000949 µM, first compound 3.16 µM) was 77.8% and the viability, T/C (second compound 0.000949 µM, first compound 10 µM) was 2.45%. For the same compound, the viability, T/C [5] was 94.1%, the viability, T/C [6] was 65.2% and the viability, T/C [7] was 54.5%. It also gave a viability, T/C [8] of 67.6%, a viability, T/C (second compound 0.003 µM, first compound 3.16 µM) of 70.9% and a viability, T/C (second compound 0.003 µM, first compound 10 µM) of 2.8%. The viability, T/C [9] was 83%, the viability, T/C [10] was 59.1% and the viability, T/C [11] was 61%. For the same compound, the viability, T/C [12] was 60%, the viability, T/C (second compound 0.00949 µM, first compound 3.16 µM) was 55.9% and the viability, T/C (second compound 0.00949 µM, first compound 10 µM) was 2.82%. For the same compound, the viability, T/C [13] was 89.5%, the viability, T/C [14] was 80.2% and the viability, T/C [15] was 57.5%. For the same compound, the viability, T/C [16] was 60.5%, the viability, T/C (second compound 0.03 µM, first compound 3.16 µM) was 33% and the viability, T/C (second compound 0.03 µM, first compound 10 µM) was 2.88%. It also gave a viability, T/C [17] of 80.6%, a viability, T/C [18] of 67.1% and a viability, T/C [19] of 56.8%. It also gave a viability, T/C [20] of 59.7%, a viability, T/C (second compound 0.0949 µM, first compound 3.16 µM) of 43.4% and a viability, T/C (second compound 0.0949 µM, first compound 10 µM) of 2.21%. For the same compound, the viability, T/C [21] was 71.7%, the viability, T/C [22] was 63.1% and the viability, T/C [23] was 56.5%. The viability, T/C [24] was 51.9%, the viability, T/C (second compound 0.3 µM, first compound 3.16 µM) was 21.2% and the viability, T/C (second compound 0.3 µM, first compound 10 µM) was 2.92%.
With `C=CC(=O)Nc1cc(Nc2nccc(-c3cn(C)c4ccccc34)n2)c(OC)cc1N(C)CCN(C)C` + CCn1c(-c2cccnc2C(C)OC)c2c3cc(ccc31)N1CCOC(CC(NC(=O)C(C(C)C)N(C)C(=O)C3(F)CCN(C(=O)C#CC(C)(C)N(C)C)CC3)C(=O)N3CCCC(N3)C(=O)OCC(C)(C)C2)C1 the IC50 (second compound 0.000949 µM) was > 1 µM, the IC50 (second compound 0.003 µM) was > 1 µM and the IC50 (second compound 0.00949 µM) was > 1 µM. The IC50 (second compound 0.03 µM) was > 1 µM, the IC50 (second compound 0.0949 µM) was > 1 µM and the IC50 (second compound 0.3 µM) was > 1 µM. For the same compound, the viability, T/C (second compound 0.000949 µM, first compound 0.00316 µM) was 100%, the viability, T/C (second compound 0.000949 µM, first compound 0.01 µM) was 107% and the viability, T/C [1] was 83.9%. The viability, T/C [2] was 112%, the viability, T/C [3] was 100% and the viability, T/C [4] was 54%. It also gave a viability, T/C (second compound 0.003 µM, first compound 0.00316 µM) of 94.1%, a viability, T/C (second compound 0.003 µM, first compound 0.01 µM) of 95.4% and a viability, T/C [5] of 94.1%. It also gave a viability, T/C [6] of 105%, a viability, T/C [7] of 103% and a viability, T/C [8] of 71.7%. The viability, T/C (second compound 0.00949 µM, first compound 0.00316 µM) was 92.3%, the viability, T/C (second compound 0.00949 µM, first compound 0.01 µM) was 84.2% and the viability, T/C [9] was 85.3%. It also gave a viability, T/C [10] of 90.4%, a viability, T/C [11] of 73.4% and a viability, T/C [12] of 54.6%. The viability, T/C (second compound 0.03 µM, first compound 0.00316 µM) was 97.5%, the viability, T/C (second compound 0.03 µM, first compound 0.01 µM) was 90.5% and the viability, T/C [13] was 83.4%. The viability, T/C [14] was 78.6%, the viability, T/C [15] was 60.1% and the viability, T/C [16] was 66.3%. For the same compound, the viability, T/C (second compound 0.0949 µM, first compound 0.00316 µM) was 96.7%, the viability, T/C (second compound 0.0949 µM, first compound 0.01 µM) was 80% and the viability, T/C [17] was 84.2%. For the same compound, the viability, T/C [18] was 67.3%, the viability, T/C [19] was 64.3% and the viability, T/C [20] was 58.6%. It also gave a viability, T/C (second compound 0.3 µM, first compound 0.00316 µM) of 84%, a viability, T/C (second compound 0.3 µM, first compound 0.01 µM) of 84% and a viability, T/C [21] of 73.5%. For the same compound, the viability, T/C [22] was 62.1%, the viability, T/C [23] was 60.2% and the viability, T/C [24] was 54.6%.
